According to US9115064B2, “N-hydroxylsulfonamide derivatives as new physiologically useful nitroxyl donors” (The Johns Hopkins University, priority 2007, dated 2015):

Assay: HNO production via N2O quantification (GC headspace analysis, Angeli's salt as benchmark)
Type: physicochemical
Conditions: pH 7.4 in PBS buffer at 37° C.; for Nitrous oxide evolved as % of Angelis salt: relative to Angeli's salt

Compound | % moles N2O/moles of sample [%] | Nitrous oxide evolved as % of Angelis salt [%]
CN(C)C(=O)c1ccc(Cl)c(S(=O)(=O)NO)c1 [Compound 7, 4-Chloro-3-(hydroxysulfamoyl)-N,N-dimethylbenzamide] | 85 | 122
CN(C)C(=O)c1ccc(Br)c(S(=O)(=O)NO)c1 [Compound 6, 4-Bromo-3-(hydroxysulfamoyl)-N,N-dimethylbenzamide] | 81 | 116
O=C(NCCN1CCOCC1)c1cc(Br)c(S(=O)(=O)NO)s1 [Compound 97, 4-Bromo-5-(hydroxysulfamoyl)-N-[2-(morpholin-4-yl)ethyl]thiophene-2-carboxamide] | 92 | 131
O=C(O)c1ccc(Br)c(S(=O)(=O)NO)c1 [Compound 4, 4-Bromo-3-hydroxysulfamoyl-benzoic acid] | 82 | 117
O=S(=O)(NO)c1ccccc1S(=O)(=O)N1CCOCC1 [Compound 8, N-Hydroxy-2-(morpholin-4-ylsulfonyl)benzene sulfonamide] | 86 | 126
COC(=O)c1ccccc1S(=O)(=O)NO [Compound 1, 2-Hydroxysulfamoyl-benzoic acid methyl ester] | 30.5 | 43
O=C(c1ccc(Br)c(S(=O)(=O)NO)c1)N1CCOCC1 [Compound 5, -Bromo-N-hydroxy-5-(morpholine-4-carbonyl)-benzenesulfonamide] | 80.5 | 115
O=C(c1cc(Br)c(S(=O)(=O)NO)s1)N1CCOCC1 [Compound 98, 3-Bromo-N-hydroxy-5-(morpholin-4-ylcarbonyl)thiophene-2-sulfonamide] | 81 | 116
O=C(O)c1ccc(Cl)c(S(=O)(=O)NO)c1 [Compound 3, 4-Chloro-3-hydroxysulfamoyl-benzoic acid] | 81.5 | 116
O=C(O)c1cccc(S(=O)(=O)NO)c1 [Compound 2, 3-Hydroxysulfamoyl-benzoic acid] | 19 | 27
O=C(OCCN1CCOCC1)c1ccc(Cl)c(S(=O)(=O)NO)c1 [Compound 9, -(Morpholin-4-yl)ethyl 4-chloro-3-(hydroxysulfamoyl)benzoate] | 65 | 93
[Na+].[Na+].[O-][N+]([O-])=NO [Angeli's Salt, sodium dioxotrinitrate, reference compound] | 70.5 | 100
